Experimental data from US11407999B2, “Pharmaceutical composition for preventing or treating angiogenesis relating ocular diseases comprising inhibitors of MCT expression or activity” (Seoul National University R&DB Foundation, priority 2019, dated 2022).

Columns and labels:
THP-1 macrophages = experiment: VEGF expression/secretion in lactic acid-treated PMA-differentiated THP-1 macrophages (real-time PCR, ELISA); assay type: cell-based, human
Protocol: (§1) HUVEC (Human umbilical vein endothelial cell; Lonza Ltd., Basel, Switzerland) was cultured in EGM-2 (endothelial growth medium-2; Lonza). A human acute monocytic leukemia THP-1 cell line was maintained in RPMI medium containing 10% FBS (Gibco). 15 ng/ml PMA (Sigma-Aldrich Corp., St. Louis, Mo., USA) and THP-1 cells were cultured under the conditions of 37° C., 5% CO2 for 2 days, and the THP-1 cells were differentiated into macrophages.
The confluent ARPE-19 monolayer cells maintained in the 24-well plate were incubated with 10 mM L(+)-lactic acid (Sigma-Aldrich Corp.) under presence or absence of α-CHC (α-cyano-4-hydroxycinnamic acid; Sigma-Aldrich) which was an MCT inhibitor (monocarboxylate transporter inhibitor) of 3 mM for a specified period. HUVEC was inoculated to a 24-well plate at a density of 1×10^5/well, and when cells reached 60% to 70% confluence, cells were exposed to 10 mM L(+)-lactic acid under presence or absence of 3 mM α-CHC. The THP-1 cells were inoculated in a 24-well plate at a density of 3)(10^5/well, and they were differentiated into macrophages by PMA treatment, and then were cultured with 20 mM L(+)-lactic acid under presence or absence of 3 mM α-CHC.
In addition, the THP-1 cells were inoculated to a 24-well plate at a density of 3)(10^5/well, and were differentiated into macrophages by PMA treatment, and then were cultured with 20 mM L(+)-lactic acid, by treating SR13800 (Tocris Bioscience, Bristol, UK) at a concentration of 0.5 to 2 μM and AR-C155858 at a concentration of 300 to 500 nM, respectively, thereto.
Cells were treated with lactic acid for 24 hours. The medium was collected and centrifuged at 587 g for 5 minutes and particles were removed and stored at −80° C. before performing ELISA.
(§2) The retina and RPE-choroid tissue were isolated from the control (naive; normal group in which CNV was not induced) CNV mouse (on day 3 after laser irradiation) or diabetic retinopathy mouse (on week 20 after STZ administration), and the isolated tissue was homogenized in ice-cold RIPA lysis buffer (Thermo Scientific, Rockford, Ill., USA) containing 1% protease inhibiting cocktail and 1% phosphatase inhibiting cocktail (GenDEPOT, Katy, Tex., USA). After centrifuging at 15,871 g for 15 minutes, the isolated supernatant was used for ELISA analysis. Secretion of VEGF was measured using ELISA Duoset system (R & D Systems, Minneapolis, Minn., USA) according to the manufacturer's instructions.
(§3) Total RNA was extracted in cells using trizole (Invitrogen, Carlsbad, Calif., USA) according to the manufacturer's instructions. RNA concentration/quality was evaluated using a nanodrop spectrophotometer (NanoDrop Technology, Wilmington, Del., USA). An equal amount of RNA was under reverse transcription to cDNA using a reverse transcription kit (Enzynomics, Daejeon, Korea), and quantitative real-time PCR (ABI PRISM 7900, Applied Biosystems) was performed using SYBR Green PCR Master Mix (Applied Biosystems, Foster City, Calif., USA) to measure gene expression. In 12 minutes at 95° C., a cycle consisting of 10 seconds at 95° C. and 30 seconds at 60° C. was performed 50 times.
Relative mRNA expression of each sample was standardized by β-actin and RPL37A, and statistics were analyzed using Student's unpaired t-test. The sequences of primers used for amplification were disclosed in the following Table 1.

[1] = tested on: diabetic retinopathy-induced mice; experiment: IB4 staining of retina of STZ diabetic retinopathy-induced mice (bleeding and angiogenesis); assay type: in vivo, mouse; settings: intraocular (intravitreal) injection, FIG. 14
Protocol: (§4) After administering STZ (streptozotocin, Sigma) to the peritoneal cavity of male C57BL6/J mice aged 7 to 8 weeks, whether high blood glucose was induced was confirmed by measuring blood glucose in 2 days. Mice of which blood glucose was induced to 400 mg/dL or more were selected, and used in the following experiment. From about 10 weeks after administering STZ, diabetic retinopathy began to appear.
(§5) At about day 140 after administrating STZ to the diabetic retinopathy-induced mice, 3 mM a-CHC 2 μl dissolved in PBS, 2 μM SR13800 2 μl dissolved in PBS, or PBS (vehicle) […] was intravitreally injected and it was used in the following experiment.
Eyes of mice in which diabetes was induced by STZ, prepared by the method of Referential example 3 were extracted and fixed in 4% paraformaldehyde for 1 hour. The anterior segment was removed, and then the retinal tissue was cultured with FITC-conjugated isolectin B4 (Sigma) at 4° C. overnight. After washing with PBS for 10 minutes 10 times using an orbital shaker at a room temperature, the stained tissue was examined under Olympus FV1000 Confocal Scanning Scope.

[2] = tested on: diabetic retinopathy-induced mice; experiment: ELISA of VEGF protein in retina and RPE-choroid of STZ diabetic retinopathy-induced mice; assay type: in vivo, mouse; settings: intravitreal 2 μM SR13800 2 μl, FIG. 13
Protocol: as §4, §5, §2

HUVEC [3] = experiment: VEGF expression in lactic acid-treated HUVEC; assay type: cell-based, human; settings: 10 mM lactic acid vs untreated control, FIG. 4b
Protocol: as §1
The confluent ARPE-19 monolayer cells maintained in the 24-well plate were incubated with 10 mM L(+)-lactic acid (Sigma-Aldrich Corp.) under presence or absence of α-CHC (α-cyano-4-hydroxycinnamic acid; Sigma-Aldrich) which was an MCT inhibitor (monocarboxylate transporter inhibitor) of 3 mM for a specified period. […]
as §3, with “In 12 minutes at 95° C., a cycle consisting of 10 seconds at 95° C. and 30 seconds at 60° C. was performed 50 times.” left out

HUVEC [4] = experiment: Tube formation assay in HUVEC with macrophage conditioned medium; assay type: cell-based, human; settings: for tube formation: FIG. 6a
Protocol: Matrigel (Corning) with reduced growth factors was thawed at 4° C. overnight. Each well of the 24-well plate cooled in advance was coated with […] and incubated at 37° C. for 40 minutes. HUVEC (3×10^4 cells) was suspended in EGM-2 medium of 100 μl, and aliquoted in a macrophage conditioned medium of 400 μl, and cultured under the condition of 37° C., 5% CO2 for 12 hours. The macrophage conditioned medium means that 20 mM lactic acid is treated for 24 hours by stimulating macrophages (or macrophages pretreated for 1 hour with α-CHC) and the medium was replaced and then the supernatant was collected.
Endothelial cell tube formation was visualized by Calcein AM (Corning) and then imaging was conducted using Leica CTR6000 fluorescence microscope (Wetzlar, Germany). The number of the capillary-like structure was quantified by manual counting of low-power field (×10). For each well, 5 independent fields were evaluated, and the mean branch number per field (magnification, ×10) was measured.

ARPE-19 = experiment: VEGF expression in lactic acid-treated ARPE-19 retinal pigment epithelium cells; assay type: cell-based, human; settings: ARPE-19, 10 mM lactic acid vs untreated control; FIG. 4a
Protocol: Human APRE-19 cells were obtained from ATCC (Manassas, Va., USA), and were cultured in DMEM (Dulbecco's modified Eagle's medium)/F12 medium (1:1, USA) supplemented by 10% bovine fetal serum (FBS) (Gibco, Carlsbad, Calif.), 1% penicillin-streptomycin (Gibco) and 2 mM L-glutamine (Gibco) in a wet incubator under the conditions of 37° C., 5% CO2. For ARPE-19 monolayer culture, ARPE-19 cells were inoculated in a 24-well tissue culture plate (1.53105 cells per well; Corning, Corning, N.Y., USA) and were maintained in DMEM/F12 medium in which serum was reduced (1% FBS). Confluent monolayer culture having TER (Transepithelial resistance) of 40 Ωcm2 or more was used in the experiment. […]
as §3, with “In 12 minutes at 95° C., a cycle consisting of 10 seconds at 95° C. and 30 seconds at 60° C. was performed 50 times.” left out

CNV mice [5] = experiment: Quantification of choroidal neovascularization (IB4 staining) in CNV mice; assay type: in vivo, mouse; settings: RPE-choroid tissue of CNV mice, day 7 after laser irradiation; vehicle group 141,472.9±49,186; FIG. 8f, 8g
Protocol: (§6) Female C57BL/6J mice aged 7 to 8 weeks were anesthetized by intraperitoneally injecting a mixture of Ketamine 100 mg/kg and Xylazine 10 mg/kg, and by dropping 1% tropicamide (Alcon Laboratories Inc., Fort Worth, Tex., USA) in eyes, the pupils of the mice were expanded. Laser was irradiated in a direction of 3, 6, 9 and 12 o'clock direction of the 2 disc diameter in an optic disc by 831-nm 106 diode laser photocoagulation method (75 μm spot size, 0.1 sec duration time, 120 mW). Bubbling or pop sensing by laser photocoagulation was considered a successful rupture of the Bruch membrane. […]
For evaluation of CNV, on day 1 after laser irradiation, PBS or α-CHC was injected in eyes, and in 6 days (on day 7 after laser irradiation), the RPE-choroid tissue isolated from the eyes of CNV mice was immunohistologically stained with Alexa-Fluor 594-conjugated IB4 (isolectin B4) (Molecular Probes) to visualize CNV. Images obtained by Olympus FV1000 Confocal Scanning Scope were treated in IMARIS imaging software (Bitplane, Zurich, Switzerland) to quantify the IB4-positive CNV amount.

CNV mice [6] = experiment: ELISA of VEGF protein in RPE/choroid and retina of CNV mice; assay type: in vivo, mouse; settings: RPE/choroid tissue of CNV mice, vs vehicle group, FIG. 8e
Protocol: as §6
as §2, with “After centrifuging at 15,871 g for 15 minutes, the isolated supernatant was used for ELISA analysis.” left out

CNV mice [7] = experiment: Flow cytometry for VEGF in macrophages of CNV mice after intravitreal injection; assay type: in vivo, mouse; settings: intravitreal 3 mM α-CHC 2 μl on day 1 after laser, vs vehicle group, FIG. 8a, 8b
Protocol: (§7) Female C57BL/6J mice aged 7 to 8 weeks were anesthetized by intraperitoneally injecting a mixture of Ketamine 100 mg/kg and Xylazine 10 mg/kg, and by dropping 1% tropicamide (Alcon Laboratories Inc., Fort Worth, Tex., USA) in eyes, the pupils of the mice were expanded. Laser was irradiated in a direction of 3, 6, 9 and 12 o'clock direction of the 2 disc diameter in an optic disc by 831-nm 106 diode laser photocoagulation method (75 μm spot size, 0.1 sec duration time, 120 mW). Bubbling or pop sensing by laser photocoagulation was considered a successful rupture of the Bruch membrane.
(§8) To evaluate the anti-angiogenic effect by blocking lactic acid intake in macrophages, on day 1 after laser irradiation, when the macrophages began to infiltrate the laser irradiation site (image area), 3 mM α-CHC 2 μl or PBS (vehicle) 2 μl dissolved in PBS was intravitreally injected, and it was used in the following experiment.
After laser irradiation, on day 1, 3, 7, 14 and 21, laser-irradiated eyes were extracted. […]
Cells labeled using LSR-II cytometer (BD Biosciences, San Jose, Calif., USA) were analyzed and data were analyzed using FlowJo software (version 7.6.2, Ashland, Oreg., USA).

CNV mice [8] = experiment: Immunohistological staining for F4/80 and VEGF in RPE-choroid of CNV mice; assay type: in vivo, mouse; settings: day 3 after laser irradiation
Protocol: as §7, §8
Laser was irradiated to mice by the method of Referential example 2, and on day 3, eyes were extracted from mice, and fixed in 4% paraformaldehyde for 1 hour. After removing the retina, the RPE-choroid tissue was cultured with rat anti-mouse F4/80 (Bio-Rad, Richmond, Calif., USA) and APC conjugated anti-mouse VEGF (C-1; Santa Cruz Biotechnology, Inc.) at […] overnight. […] The regions of infiltrated macrophages and secreted VEGF were measured using ImageJ software.

## Cc1n[nH]c(C)c1Cc1sc2c(c1C(=O)N1C[C@H](O)CO1)c(=O)n(C)c(=O)n2CC(C)C [AR-C155858]
THP-1 macrophages; THP-1 macrophages, 20 mM lactic acid plus AR-C155858 300 to 500 nM, FIG. 9b
  VEGF expression increased by lactic acid: does not show significant changes

## CC(C)Cc1nn(C)c(=O)c2c(SCCCO)n(Cc3cccc4ccccc34)cc12 [SR13800]
[1]
  bleeding and angiogenesis increased in the diabetic retinopathy model: significantly reduced
[2]; RPE-choroid tissue
  VEGF expression in the RPE-choroid tissue: did not affect
[2]; retinal tissue
  VEGF expression increased in the retinal tissue by induction of diabetic retinopathy: significantly reduced
THP-1 macrophages; THP-1 macrophages, 20 mM lactic acid plus SR13800 0.5 to 2 μM vs only lactic acid, dependent on inhibitor concentration, FIG. 9a
  VEGF secretion: reduced

## CC(O)C(=O)O (stereo not drawn) [lactic acid, L(+)-lactic acid]
THP-1 macrophages; PMA-differentiated THP-1 macrophages, 20 mM lactic acid vs untreated control, FIG. 4c
  increase of VEGF expression after treatment of lactic acid: ≥ 3 times
THP-1 macrophages; THP-1 macrophages, 24 hours, FIG. 5
  increase of VEGF secretion after stimulating with lactic acid: about 5 times
HUVEC [3]
  gene transcriptome and protein expression for VEGF: did not change significantly
HUVEC [4]; HUVEC with supernatant of lactic acid-stimulated macrophages vs lactic acid untreated group, FIG. 6b
  increase of number of branches: about 5 times
HUVEC [4]; HUVEC with supernatant of macrophages stimulated with 20 mM lactic acid
  tube formation: significantly increased
ARPE-19
  gene transcriptome and protein expression for VEGF: did not change significantly

## N#CC(=Cc1ccc(O)cc1)C(=O)O [α-CHC, α-cyano-4-hydroxycinnamic acid]
[1]
  bleeding and angiogenesis increased in the diabetic retinopathy model: reduced
CNV mice [5]
  IB4-positive endothelial cells (CNV amount): 74,160.6±12,339.5 μm^3
THP-1 macrophages; THP-1 macrophages, lactic acid plus α-CHC vs only lactic acid, dependent on inhibitor concentration, FIG. 5
  VEGF secretion (VEGF expression): reduced
CNV mice [6]
  amount of VEGF protein increased by CNV induction: significantly reduced
HUVEC [4]; HUVEC with supernatant of macrophages pretreated with α-CHC then lactic acid, vs only lactic acid, FIG. 6b
  number of branches: significantly reduced
HUVEC [4]; HUVEC with supernatant of macrophages pretreated with α-CHC then lactic acid
  tube formation: reduced
CNV mice [7]
  VEGF expression (relative mean fluorescence intensity): significantly reduced
CNV mice [8]; intravitreal injection, vehicle group 523,378±165,071, FIG. 8c, 8d
  VEGF positive region in the F4/80 stained macrophage region: 383,738±196,716 μm2
CNV mice [8]; vs vehicle group, FIG. 8d
  area of infiltrated macrophages: no significant difference
